Molecules are shown by their SMILES.

This test deals with LAPC-4 cells. The test can be described thus: Androgen regulation of 121P1F1 in vitro (Northern blot). Type of test: cell-based, human. Conditions: LAPC-4 cells in charcoal-stripped medium. How it is done: FIG. 22. Androgen regulation of 121P1F1 in vitro. […] cells were grown in charcoal-stripped medium and stimulated with the synthetic androgen mibolerone, for either 14 or 24 hours. Northern blot was performed with 10 μg of total RNA for each sample, and probed with the 121P1F1 SSH fragment. A picture of the ethidium-bromide staining of the RNA gel is also presented (lowest panel). Hybridization of the same northern blot with the androgen-dependent gene TMPRSS2 confirms the quality of the androgen deprivation.
Since 121P1F1 was derived from a […] LAPC-9 AD (28 days post-castration) subtraction, an assay was performed for androgen regulation of 121P1F1 (FIG. 22). LAPC-4 cells were grown in charcoal-stripped medium and stimulated with the synthetic androgen mibolerone, for either 14 or 24 hours. It was shown that the expression of 121P1F1 went down in absence of normal serum, and is modulated in presence of mibolerone, 24 hours after stimulation. The experimental samples were confirmed by testing for the expression of the androgen-regulated prostate cancer gene TMPRSS2.

For `C[C@@H]1CC2=CC(=O)CC[C@@H]2[C@H]2CC[C@@]3(C)[C@@H](CC[C@]3(C)O)[C@@H]21` [mibolerone], the “expression of 121P1F1” value (24 hours after stimulation) is “modulated”. Also, under “at 14 and 24 hours”, the TMPRSS2 expression result was “induced”.
